In ChEMBL document CHEMBL1201862, “PubChem BioAssay data set” (2004):
Calls of active or inactive are those of the source.

Experiments:
[1] = Luminescence Cell-Based Dose Retest to Confirm Inhibitors of Cancer Stem Cells. [Related pubchem assays (depositor defined):AID2717, AID2721]; type: functional; settings: Homo sapiens
[2] = biological target: T1, Streptokinase A (Streptococcus pyogenes serotype M1, UniProt P10520); assay: viability-normalized secreted streptokinase activity reduction – plasminogen activation absorbance, OD405, dose response (AID 1914); type: functional, Streptococcus pyogenes M1 GAS;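 note: secreted streptokinase activity via plasminogen activation per viability signal from cell pellet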
T1 sequence (P10520 whole entry): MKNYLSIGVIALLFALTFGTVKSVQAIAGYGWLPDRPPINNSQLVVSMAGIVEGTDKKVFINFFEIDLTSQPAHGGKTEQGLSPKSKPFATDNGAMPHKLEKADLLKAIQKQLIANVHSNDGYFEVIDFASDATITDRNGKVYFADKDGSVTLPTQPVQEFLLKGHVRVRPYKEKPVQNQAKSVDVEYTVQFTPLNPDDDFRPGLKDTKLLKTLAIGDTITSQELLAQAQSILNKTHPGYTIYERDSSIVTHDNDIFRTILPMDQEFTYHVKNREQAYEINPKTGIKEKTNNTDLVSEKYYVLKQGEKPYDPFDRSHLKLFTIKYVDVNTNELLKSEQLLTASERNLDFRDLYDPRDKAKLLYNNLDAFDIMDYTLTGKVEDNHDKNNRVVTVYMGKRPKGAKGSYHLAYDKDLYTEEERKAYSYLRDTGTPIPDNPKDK

[3] = biological target: T2, Neuropeptide Y receptor type 2 (Homo sapiens, UniProt P49146); type: functional, cell-based;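 note: HEK293 cells expressing the receptor and a CNG channel; stimulus was NPY near EC95 followed by isoproterenol to raise cAMP; antagonist potency measured as restoring cAMP signal that NPY suppresses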
T2 sequence (P49146 whole entry): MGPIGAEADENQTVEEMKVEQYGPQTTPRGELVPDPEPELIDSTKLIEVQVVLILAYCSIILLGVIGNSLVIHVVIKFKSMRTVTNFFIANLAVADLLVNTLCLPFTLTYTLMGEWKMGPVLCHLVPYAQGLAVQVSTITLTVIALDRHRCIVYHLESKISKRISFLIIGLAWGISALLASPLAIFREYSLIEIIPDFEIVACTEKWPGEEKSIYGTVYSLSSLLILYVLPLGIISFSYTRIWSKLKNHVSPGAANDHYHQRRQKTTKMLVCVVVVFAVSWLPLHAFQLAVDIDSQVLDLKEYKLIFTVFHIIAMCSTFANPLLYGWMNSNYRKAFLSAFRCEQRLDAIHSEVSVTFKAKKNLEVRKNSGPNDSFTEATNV

[4] = test system: Streptococcus; assay: GAS UMAA2166 growth inhibition – luminescence, BacTiterGlo, counter-screen for streptokinase expression inhibitor project, dose response (AID 1915); type: functional, organism-based;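 note: potency for reduction of bacterial viability or growth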
[5] = biological target: T3, Neuropeptide Y receptor type 1 (Homo sapiens, UniProt P25929); type: functional;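 note: HEK293 cells with a CNG channel challenged with NPY then isoproterenol; potency as antagonist that reverses NPY suppression of cAMP signal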
T3 sequence (P25929 whole entry): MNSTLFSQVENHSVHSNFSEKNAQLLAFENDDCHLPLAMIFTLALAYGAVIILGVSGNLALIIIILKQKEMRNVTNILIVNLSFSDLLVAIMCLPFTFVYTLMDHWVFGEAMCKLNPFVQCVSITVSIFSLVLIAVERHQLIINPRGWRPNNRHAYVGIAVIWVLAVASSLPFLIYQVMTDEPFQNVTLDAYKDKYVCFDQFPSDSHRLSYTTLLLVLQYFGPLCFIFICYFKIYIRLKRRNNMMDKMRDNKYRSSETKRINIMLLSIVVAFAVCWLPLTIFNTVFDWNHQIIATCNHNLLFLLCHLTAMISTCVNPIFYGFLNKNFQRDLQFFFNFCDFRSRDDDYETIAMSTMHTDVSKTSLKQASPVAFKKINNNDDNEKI

[6] = viability of uninfected HEp-2 cells – cell-based, HTS, cytotoxicity control for RSV inhibitor project, dose response (AID 2410); type: functional; settings: human respiratory syncytial virus
[7] = test system: Streptococcus sp. 'group A'; assay: Streptococcus pyogenes SK(-)GAS viability under kanamycin – luminescence, BacTiterGlo, confirmation, counter-screen for streptokinase expression inhibitor project, dose response (AID 1900); type: functional, organism-based
[8] = biological target: Peroxisome proliferator-activated receptor gamma/Nuclear receptor coactivator 1 (Homo sapiens, UniProt P37231); type: functional;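 note: agonist potency as compounds enhance coactivator SRC-1 recruitment to PPARgamma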
[9] = biological target: Peroxisome proliferator-activated receptor gamma/Nuclear receptor coactivator 3 (Homo sapiens, UniProt P37231); type: functional;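 note: agonist potency for raising coactivator recruitment to the receptor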
[10] = biological target: Peroxisome proliferator-activated receptor gamma/Nuclear receptor coactivator 2 (Homo sapiens, UniProt P37231); type: functional;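 note: agonist potency for raising coactivator recruitment to the receptor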
[11] = Luminescence-based dose response cell-based high throughput screening assay for cytotoxic compounds using the IEC-6 intestinal epithelial cell line. [Related pubchem assays: 1858 (Summary AID.), 1825 (Counterscreen.), 1907 (Confirmation screen.)]; type: functional
[12] = NIH3T3 cell viability loss – ATP luminescence, mouse fibroblasts, counter-screen, dose response (AID 2010); type: functional, cell-based;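 note: cells exposed to compound for about 90 hours before reading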
[13] = Luminescence Cell-Based Dose Response HTS to Identify Activators of Luciferase Translation or Activity in H4 […] Cells. [Related pubchem assays: 1829 (Project Summary), 1814 (Primary HTS)]; type: functional
[14] = Trypanosoma cruzi growth suppression in host cells – NIH3T3 host cells, beta-gal luminescence, confirmation (AID 2044); type: functional, cell-based;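 note: intracellular parasites grown in NIH/3T3 mouse fibroblasts as host cells; luminescent beta-galactosidase reporter signal from transgenic T. cruzi replicating inside host cells; inhibitors lower the luminescence signal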
[15] = biological target: T4, Sentrin-specific protease 8 (Homo sapiens, UniProt Q96LD8); type: functional;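 note: luminescence read-out of SENP8 inhibition, dose-response confirmation following an ultra-high-throughput screen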
T4 sequence (Q96LD8 whole entry): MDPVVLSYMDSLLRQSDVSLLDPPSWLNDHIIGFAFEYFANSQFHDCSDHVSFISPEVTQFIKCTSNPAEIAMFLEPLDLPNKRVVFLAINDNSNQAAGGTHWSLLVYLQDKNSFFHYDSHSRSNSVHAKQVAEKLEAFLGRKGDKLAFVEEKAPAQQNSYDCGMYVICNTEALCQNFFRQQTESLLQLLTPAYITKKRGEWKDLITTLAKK

[16] = biological target: T5, Serine/threonine-protein phosphatase (Homo sapiens, UniProt Q9BPW0); assay: inhibition of protein phosphatase 5 activity – biochemical, fluorescence, dose response (AID 2395)
T5 sequence (Q9BPW0 whole entry): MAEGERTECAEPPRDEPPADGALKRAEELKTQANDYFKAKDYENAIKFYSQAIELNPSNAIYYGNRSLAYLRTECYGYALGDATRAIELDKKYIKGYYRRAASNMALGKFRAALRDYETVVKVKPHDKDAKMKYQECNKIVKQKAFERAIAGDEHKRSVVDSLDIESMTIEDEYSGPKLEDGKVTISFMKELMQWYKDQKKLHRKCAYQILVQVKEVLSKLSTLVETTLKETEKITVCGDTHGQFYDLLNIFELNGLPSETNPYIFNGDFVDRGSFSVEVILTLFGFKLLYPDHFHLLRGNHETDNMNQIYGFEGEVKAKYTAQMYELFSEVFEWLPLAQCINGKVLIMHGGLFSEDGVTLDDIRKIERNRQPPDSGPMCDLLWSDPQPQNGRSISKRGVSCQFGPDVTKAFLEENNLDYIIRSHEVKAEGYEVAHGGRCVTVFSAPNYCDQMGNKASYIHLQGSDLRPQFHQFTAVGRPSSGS

[17] = biological target: Serine/threonine-protein phosphatase PP1-alpha catalytic subunit (Homo sapiens, UniProt P62136); assay: inhibition of protein phosphatase 1 activity – biochemical, fluorescence, dose response (AID 2394)
[18] = biological target: T6, Caspase-3 (Homo sapiens, UniProt P42574); type: functional;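 note: Dose-response selectivity test against caspase-3 for candidate inhibitors of sentrin-specific proteases (SENPs)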
T6 sequence (P42574 whole entry): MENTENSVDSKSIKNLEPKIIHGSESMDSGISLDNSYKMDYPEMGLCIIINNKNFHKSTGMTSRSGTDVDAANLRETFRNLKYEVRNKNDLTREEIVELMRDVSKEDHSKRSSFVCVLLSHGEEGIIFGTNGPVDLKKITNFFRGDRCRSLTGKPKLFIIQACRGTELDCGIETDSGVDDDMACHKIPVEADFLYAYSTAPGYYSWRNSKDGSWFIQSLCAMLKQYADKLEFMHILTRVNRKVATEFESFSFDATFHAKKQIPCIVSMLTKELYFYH

[19] = biological target: T7, Sentrin-specific protease 7 (Homo sapiens, UniProt Q9BQF6); type: functional;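 note: Luminescence-based dose-response confirmation of ultra-high-throughput screening hits, measuring inhibition of SENP7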
T7 sequence (Q9BQF6 whole entry): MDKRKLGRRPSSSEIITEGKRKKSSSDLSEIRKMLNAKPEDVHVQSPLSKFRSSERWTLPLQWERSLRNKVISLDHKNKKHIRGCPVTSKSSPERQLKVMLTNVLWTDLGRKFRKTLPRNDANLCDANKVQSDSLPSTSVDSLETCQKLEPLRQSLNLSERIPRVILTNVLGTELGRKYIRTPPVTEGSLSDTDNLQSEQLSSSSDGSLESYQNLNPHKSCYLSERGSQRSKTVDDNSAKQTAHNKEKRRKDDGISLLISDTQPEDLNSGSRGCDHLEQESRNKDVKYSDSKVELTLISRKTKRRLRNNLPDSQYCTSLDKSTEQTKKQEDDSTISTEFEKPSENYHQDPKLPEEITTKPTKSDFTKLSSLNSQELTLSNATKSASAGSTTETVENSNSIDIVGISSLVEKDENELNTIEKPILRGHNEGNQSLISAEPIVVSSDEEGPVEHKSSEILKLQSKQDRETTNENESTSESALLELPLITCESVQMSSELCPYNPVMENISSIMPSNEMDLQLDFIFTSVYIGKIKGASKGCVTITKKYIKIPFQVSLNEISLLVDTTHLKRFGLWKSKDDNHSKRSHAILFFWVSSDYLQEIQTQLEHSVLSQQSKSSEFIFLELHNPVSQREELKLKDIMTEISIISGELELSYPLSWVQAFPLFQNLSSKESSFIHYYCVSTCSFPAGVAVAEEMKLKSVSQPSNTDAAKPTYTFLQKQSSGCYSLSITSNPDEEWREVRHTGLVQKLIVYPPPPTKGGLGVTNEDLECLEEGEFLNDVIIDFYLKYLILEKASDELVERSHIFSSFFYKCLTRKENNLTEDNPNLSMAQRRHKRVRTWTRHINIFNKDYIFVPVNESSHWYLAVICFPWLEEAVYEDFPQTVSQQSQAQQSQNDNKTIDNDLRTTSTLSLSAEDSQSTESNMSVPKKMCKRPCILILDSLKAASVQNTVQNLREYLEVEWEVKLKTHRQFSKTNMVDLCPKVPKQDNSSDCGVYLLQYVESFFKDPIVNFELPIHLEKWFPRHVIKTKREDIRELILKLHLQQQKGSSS

[20] = biological target: T8, Sentrin-specific protease 6 (Homo sapiens, UniProt Q9GZR1); type: functional;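 note: Luminescence-based dose-response confirmatory assay of SENP6 inhibition, following up an ultra-high-throughput screen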
T8 sequence (Q9GZR1 whole entry): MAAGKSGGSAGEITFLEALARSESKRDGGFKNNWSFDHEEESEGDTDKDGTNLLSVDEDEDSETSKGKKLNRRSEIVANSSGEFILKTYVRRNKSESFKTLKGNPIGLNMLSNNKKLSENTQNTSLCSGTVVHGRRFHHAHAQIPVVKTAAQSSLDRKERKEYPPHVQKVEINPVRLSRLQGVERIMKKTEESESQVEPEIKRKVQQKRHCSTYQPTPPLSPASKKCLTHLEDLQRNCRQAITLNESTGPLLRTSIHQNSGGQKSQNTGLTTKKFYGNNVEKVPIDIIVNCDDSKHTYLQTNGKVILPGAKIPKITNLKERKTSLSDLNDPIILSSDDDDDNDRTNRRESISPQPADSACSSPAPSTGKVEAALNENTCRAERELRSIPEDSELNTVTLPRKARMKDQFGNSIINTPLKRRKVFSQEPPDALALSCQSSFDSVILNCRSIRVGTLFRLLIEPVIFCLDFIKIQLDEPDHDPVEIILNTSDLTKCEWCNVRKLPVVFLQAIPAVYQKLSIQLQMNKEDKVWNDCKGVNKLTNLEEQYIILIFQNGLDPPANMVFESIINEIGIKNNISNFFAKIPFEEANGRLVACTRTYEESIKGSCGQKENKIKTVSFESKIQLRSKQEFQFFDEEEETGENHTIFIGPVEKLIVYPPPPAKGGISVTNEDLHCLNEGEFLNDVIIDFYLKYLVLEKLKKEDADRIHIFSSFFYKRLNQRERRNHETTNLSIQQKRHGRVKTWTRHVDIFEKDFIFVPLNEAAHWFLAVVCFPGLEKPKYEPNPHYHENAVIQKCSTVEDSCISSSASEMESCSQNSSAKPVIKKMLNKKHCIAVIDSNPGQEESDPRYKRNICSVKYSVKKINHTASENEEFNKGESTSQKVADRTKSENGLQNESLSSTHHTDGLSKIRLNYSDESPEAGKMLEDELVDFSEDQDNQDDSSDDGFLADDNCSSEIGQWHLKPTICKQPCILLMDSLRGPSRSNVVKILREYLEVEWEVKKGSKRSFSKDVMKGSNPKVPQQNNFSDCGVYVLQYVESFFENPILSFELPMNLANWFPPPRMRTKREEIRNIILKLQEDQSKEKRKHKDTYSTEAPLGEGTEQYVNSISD

[21] = cells
[22] = cells; remark: listed apart in the source
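Throughout, for AC50: cells exposed to compound for roughly 70 hours or longer before luminescence read.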

Chain of Peroxisome proliferator-activated receptor gamma/Nuclear receptor coactivator 1 (P37231 whole entry): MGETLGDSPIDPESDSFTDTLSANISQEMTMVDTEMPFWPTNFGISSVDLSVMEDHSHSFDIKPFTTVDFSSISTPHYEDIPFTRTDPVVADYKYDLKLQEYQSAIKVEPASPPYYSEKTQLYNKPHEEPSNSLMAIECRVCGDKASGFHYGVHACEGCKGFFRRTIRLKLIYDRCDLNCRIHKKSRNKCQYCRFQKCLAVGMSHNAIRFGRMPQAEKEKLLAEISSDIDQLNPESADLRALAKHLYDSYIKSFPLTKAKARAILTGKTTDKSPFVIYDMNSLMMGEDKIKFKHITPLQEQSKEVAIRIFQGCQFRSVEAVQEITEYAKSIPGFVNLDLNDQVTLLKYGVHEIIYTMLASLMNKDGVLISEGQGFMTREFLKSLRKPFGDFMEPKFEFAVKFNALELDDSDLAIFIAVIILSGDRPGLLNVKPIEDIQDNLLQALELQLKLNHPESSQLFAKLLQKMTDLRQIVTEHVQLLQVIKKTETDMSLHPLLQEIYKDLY
Chain of Peroxisome proliferator-activated receptor gamma/Nuclear receptor coactivator 1 (Q15788 whole entry, further chain): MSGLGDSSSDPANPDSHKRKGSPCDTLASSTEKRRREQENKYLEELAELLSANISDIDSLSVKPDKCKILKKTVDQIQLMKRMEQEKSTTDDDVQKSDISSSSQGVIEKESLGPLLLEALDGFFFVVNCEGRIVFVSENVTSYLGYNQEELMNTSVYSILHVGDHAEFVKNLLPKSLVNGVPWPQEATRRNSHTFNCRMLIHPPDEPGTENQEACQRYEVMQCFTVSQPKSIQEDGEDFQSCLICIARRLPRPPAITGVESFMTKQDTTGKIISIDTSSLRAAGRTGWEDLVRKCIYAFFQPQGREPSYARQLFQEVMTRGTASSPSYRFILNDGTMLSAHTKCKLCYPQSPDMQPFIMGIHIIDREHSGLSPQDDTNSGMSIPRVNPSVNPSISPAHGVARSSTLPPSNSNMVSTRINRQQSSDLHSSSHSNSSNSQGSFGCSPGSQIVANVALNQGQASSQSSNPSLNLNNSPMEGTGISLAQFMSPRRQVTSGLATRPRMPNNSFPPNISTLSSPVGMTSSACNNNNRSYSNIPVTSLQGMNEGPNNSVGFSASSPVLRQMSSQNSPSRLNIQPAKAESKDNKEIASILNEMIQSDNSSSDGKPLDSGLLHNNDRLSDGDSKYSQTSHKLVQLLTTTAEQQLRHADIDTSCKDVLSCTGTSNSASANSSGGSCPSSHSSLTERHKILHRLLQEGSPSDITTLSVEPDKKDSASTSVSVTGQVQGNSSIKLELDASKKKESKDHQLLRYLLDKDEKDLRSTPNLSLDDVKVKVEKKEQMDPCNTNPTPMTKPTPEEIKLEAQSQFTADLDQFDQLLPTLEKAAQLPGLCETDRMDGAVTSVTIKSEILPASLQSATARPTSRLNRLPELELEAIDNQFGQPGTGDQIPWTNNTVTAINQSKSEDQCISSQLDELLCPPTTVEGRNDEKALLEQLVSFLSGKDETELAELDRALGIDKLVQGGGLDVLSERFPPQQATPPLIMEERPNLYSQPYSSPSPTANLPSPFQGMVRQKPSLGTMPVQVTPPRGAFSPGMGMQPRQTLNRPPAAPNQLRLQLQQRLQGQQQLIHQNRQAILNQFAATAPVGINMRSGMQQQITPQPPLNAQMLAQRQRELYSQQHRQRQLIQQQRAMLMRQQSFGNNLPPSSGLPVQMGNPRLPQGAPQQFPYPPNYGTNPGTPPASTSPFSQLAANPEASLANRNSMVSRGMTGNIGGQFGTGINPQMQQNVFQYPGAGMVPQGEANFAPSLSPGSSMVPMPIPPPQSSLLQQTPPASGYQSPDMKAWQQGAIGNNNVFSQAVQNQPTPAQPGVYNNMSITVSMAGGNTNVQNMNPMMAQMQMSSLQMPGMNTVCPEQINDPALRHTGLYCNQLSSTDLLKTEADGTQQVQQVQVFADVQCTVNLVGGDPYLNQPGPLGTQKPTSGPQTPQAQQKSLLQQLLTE
Chain of Peroxisome proliferator-activated receptor gamma/Nuclear receptor coactivator 3 (P37231 whole entry): as the sequence (P37231 whole entry) above
Chain of Peroxisome proliferator-activated receptor gamma/Nuclear receptor coactivator 3 (Q9Y6Q9 whole entry, further chain): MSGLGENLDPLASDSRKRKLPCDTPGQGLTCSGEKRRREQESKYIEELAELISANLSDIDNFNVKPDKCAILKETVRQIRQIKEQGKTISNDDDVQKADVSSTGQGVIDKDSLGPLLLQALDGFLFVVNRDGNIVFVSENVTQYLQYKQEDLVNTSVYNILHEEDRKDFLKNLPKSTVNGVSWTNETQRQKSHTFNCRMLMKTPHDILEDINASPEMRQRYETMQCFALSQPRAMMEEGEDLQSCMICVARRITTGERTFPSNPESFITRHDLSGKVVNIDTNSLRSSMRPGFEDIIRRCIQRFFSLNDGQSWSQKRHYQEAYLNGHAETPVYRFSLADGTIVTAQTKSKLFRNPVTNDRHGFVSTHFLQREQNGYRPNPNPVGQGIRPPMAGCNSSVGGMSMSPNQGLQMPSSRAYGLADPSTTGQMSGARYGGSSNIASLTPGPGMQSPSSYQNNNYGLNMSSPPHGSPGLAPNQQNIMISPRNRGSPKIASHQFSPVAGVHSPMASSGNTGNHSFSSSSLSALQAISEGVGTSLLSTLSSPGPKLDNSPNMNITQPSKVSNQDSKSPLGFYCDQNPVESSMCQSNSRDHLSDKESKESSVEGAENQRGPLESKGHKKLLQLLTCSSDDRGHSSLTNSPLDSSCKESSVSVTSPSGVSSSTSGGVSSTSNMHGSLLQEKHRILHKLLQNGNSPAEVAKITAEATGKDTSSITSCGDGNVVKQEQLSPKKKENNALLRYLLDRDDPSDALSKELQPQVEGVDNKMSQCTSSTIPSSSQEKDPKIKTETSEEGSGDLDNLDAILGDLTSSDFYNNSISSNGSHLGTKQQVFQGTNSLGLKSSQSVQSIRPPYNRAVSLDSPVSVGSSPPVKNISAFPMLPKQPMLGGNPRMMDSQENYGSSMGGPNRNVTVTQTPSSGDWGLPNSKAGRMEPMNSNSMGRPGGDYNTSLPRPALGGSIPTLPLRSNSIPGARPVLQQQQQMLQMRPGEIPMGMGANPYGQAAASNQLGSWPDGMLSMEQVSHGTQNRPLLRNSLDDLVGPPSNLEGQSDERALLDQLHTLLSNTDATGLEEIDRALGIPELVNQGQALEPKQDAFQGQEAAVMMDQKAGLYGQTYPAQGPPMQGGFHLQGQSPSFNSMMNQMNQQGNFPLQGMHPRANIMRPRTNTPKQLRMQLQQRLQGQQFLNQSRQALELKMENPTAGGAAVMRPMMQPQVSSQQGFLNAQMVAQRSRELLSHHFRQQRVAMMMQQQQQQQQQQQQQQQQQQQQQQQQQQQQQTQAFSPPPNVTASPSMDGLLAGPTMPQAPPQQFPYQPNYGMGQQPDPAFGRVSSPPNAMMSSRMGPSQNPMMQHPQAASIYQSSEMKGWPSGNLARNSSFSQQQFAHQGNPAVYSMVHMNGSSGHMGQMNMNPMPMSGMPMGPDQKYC
Chain of Serine/threonine-protein phosphatase PP1-alpha catalytic subunit (P62136 whole entry): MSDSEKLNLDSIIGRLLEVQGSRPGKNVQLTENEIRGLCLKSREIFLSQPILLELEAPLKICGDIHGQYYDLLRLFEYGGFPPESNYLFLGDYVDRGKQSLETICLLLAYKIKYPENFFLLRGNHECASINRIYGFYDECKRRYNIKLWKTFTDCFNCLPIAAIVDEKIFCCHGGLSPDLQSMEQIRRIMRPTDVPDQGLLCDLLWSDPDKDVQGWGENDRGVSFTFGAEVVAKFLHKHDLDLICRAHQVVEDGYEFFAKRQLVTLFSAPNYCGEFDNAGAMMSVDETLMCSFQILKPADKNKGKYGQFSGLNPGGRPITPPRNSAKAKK

SMILES: CC(C)COC(=O)c1cccc2c1-c1ccccc1/C2=N\O
- AC50 [1]: 5.69 µM (active)
- EC50 [2]: > 50 µM (not active)
- IC50 [3]: 4.96 µM (active)
- EC50 [4]: > 150 µM (not active)
- IC50 [5]: 6.46 µM (active)
- CC50 [6]: > 50 µM (active)
- EC50 [7]: 4.74 µM (active)

SMILES: O=C(CSc1ccc2nnc(-c3ccc(Cl)cc3)n2n1)N1CCCc2ccccc21
- EC50 [8]: 50.1 µM (not active)
- EC50 [9]: 52.3 µM (not active)
- EC50 [10]: 27.4 µM (not active)

SMILES: CCOc1ccc(NC(=S)N2CCC(C(O)(c3ccccc3)c3ccccc3)CC2)cc1
- IC50 [3]: 0.22 µM (active)
- IC50 [5]: > 35 µM (not active)

SMILES: Cc1ccc(Nc2nc(-c3ccncc3)cs2)cc1
- IC50 [11]: 2.71 µM (active)
- EC50 [12]: 8.83 µM (active)
- EC50 [13]: 0.149 µM (active)
- EC50 [14]: 0.239 µM (active)

SMILES: CN1CC[C@@]2(C)c3cc(O)ccc3N(C)C2O1 (some centres not stated)
- IC50 [15]: 10.7 µM (active)
- IC50 [16]: > 7.45 µM (active)
- IC50 [17]: 52.3 µM (not active)
- IC50 [18]: > 100 µM (inactive)
- IC50 [19]: 14.3 µM (active)
- IC50 [20]: 11.9 µM (active)

SMILES: CCOc1ccc(OCC(O)CNC2CCN(Cc3ccccc3)CC2)cc1 (configuration not stated)
- EC50 [21]: 0.255 µM (active)
- EC50 [12]: 9.8 µM (active)
- EC50 [14]: < 0.1 µM (active)

SMILES: O=C(/C=C/c1ccc(OCc2c(F)cccc2Cl)cc1)N1CCOCC1
- IC50 [22]: 10.4 µM (active)
- CC50 [6]: 15.9 µM (active)

SMILES: Cc1ccc2cc(CN(CC3CCCO3)C(S)=NCc3ccco3)c(O)nc2c1C (configuration not stated)
- IC50 [22]: 24.6 µM (active)
- CC50 [6]: 24.3 µM (active)

SMILES: CCOC(=O)c1ccc(NC(=O)CCc2nc(-c3ccc(C)cc3)no2)cc1
- EC50 [8]: > 79.4 µM (not active)
- EC50 [9]: > 79.4 µM (not active)
- EC50 [10]: > 79.4 µM (not active)
